Measured values from patent publication US20240043880A1, “IMPROVED METHODS FOR PRODUCTION, RECOVERY AND SECRETION OF HYDROPHOBIC COMPOUNDS IN A FERMENTATION” (BioPhero ApS, priority 2019, published 2024).

How the values were obtained:
Helicoverpa armigera = settings: H. armigera, cited from earlier work
Chilo suppressalis = settings: C. suppressalis, cited from earlier work
[1] = system: Y. lipolytica strain ST8881; format: cell-based, Yarrowia lipolytica; settings: antifoaming agent 3 v/v %
Source text: Strain ST8327 has been engineered to produce (Z)11-hexadecen-1-ol. […] The strain expresses the Δ11 desaturase from Amyelois transitella (SEQ ID NO: 1) and fatty acyl-CoA reductase from Helicoverpa armigera (SEQ ID NO: 5). Strain ST8762 has been engineered to produce (Z)9-tetradecen-1-ol. The strain expresses the Δ9 desaturase from Drosophila melanogaster (SEQ ID NO: 16) and fatty acyl-CoA reductase from Helicoverpa armigera (SEQ ID NO: 5). […] A strain was inoculated from a YPD agar plate (10 g/L yeast extract, 10 g/L peptone, 20 g/L glucose, 15 g/L agar agar) to an initial OD600 of 0.1-0.2 into 2.5 mL YPG medium (10 g/L yeast extract, 10 g/L peptone, 40 g/L glycerol) in 24 well-plate (EnzyScreen). The plate was incubated at 28° C. and 300 rpm for 22 hours. […] At the same time, 95 μL of Antifoam A (ethoxylated and propoxylated C16-18 alcohols, CAS No. 68002-96-0), corresponding to […] (i.e. above the recommended dose of 0.1 v/v % for foam management and above the cloud concentration), was added. The plate was incubated at 28° C. and 300 rpm for 28 hours. Each experiment was performed in biological triplicates.
The intracellular and extracellular concentrations of fatty alcohols were assessed as follows. 1000 μL of culture broth was transferred to a 4 mL gas-tight glass extraction vial. The sample was centrifuged at 3,500 g for 5 min at room temperature. The supernatant was transferred into a new glass vial with 990 μL of hexane and 10 μL of internal standard (IS) solution (20 mg/L of methyl Z10-heptadecanoate in ethyl acetate). The vial was vortexed for 10 s and centrifuged as before. 250 μL of the upper hexane phase was transferred to a GC vial for GC-MS analysis of the extracellular fatty alcohol concentration. The pellet remaining after the removal of the supernatant from the centrifuged culture broth was resuspended in 990 μL of solvent mixture (EtOAc and EtOH) and 10 μL of IS solution as above. The sample was incubated for 1 h with periodic mixing. 300 μL water was added and the vials were centrifuged at 3,500 g for 5 min at room temperature. 250 μL of the upper organic phase was transferred to a GC vial for GC-MS analysis of the intracellular fatty alcohols. GC-MS analyses were performed on an Agilent 7820A GC coupled to a mass selective detector Agilent 5977B. The GC was equipped with an DB Fatwax column (30 m×0.25 mm×0.25 μm), and helium was used as carrier gas. The MS was operated in electron impact mode (70 eV), scanning between m/z 30 and 400, and the injector was configured in split mode 20:1 at 220° C. Oven temperature was set to 80° C. for 1 min, then increased at a rate of 20° C./min to 210° C., followed by a hold at 210° C. for 7 min, and then increased at a rate of 20° C./min to 230° C. Compounds were identified by comparison of retention times and mass spectra of the reference compounds. Compounds were quantified by the ion 55.1 m/z. Data were analysed by the Agilent Masshunter software. The concentrations of fatty alcohols were calculated based on standard calibration curves prepared with reference standards.
Here we investigated the effect of different antifoaming oils and agents on the recovery of fatty alcohols in a separate phase. The experiments were performed with engineered Y. lipolytica strain ST8881 following the procedures as in Example 1.
The control experiment was performed without addition of any antifoaming oil or agent.

SMILES | Behavioral response (Helicoverpa armigera) | Behavioral response (Chilo suppressalis) | % secretion of Z11.hexadecen-1-ol [1] | Extracellular concentration of Z11.hexadecen-1-ol [1] | Total concentration of Z11-hexadecen-1-ol [1] [mg/L] | Effect on the activity of an artificial pheromone formulation when added to Z11-16:Ald (Helicoverpa armigera; Kehat et al., 1990) | Interaction with the two primary pheromone components Z11-16:Ald and Z13-18:Ald (Chilo suppressalis; Tatsuki et al.)
CCCCCCCCCCCCCCCC=O [16:Ald, n-Hexadecanal] | neutral | does not elicit a behavioral response | – | – | – | – | –
CCCCCCCCCCCC [Dodecane] | – | – | 0 (0%) | 0 (0%) | 720.0 ± 95.6 | – | –
CCCCCCCC/C=C\CCCCCCCC(=O)O [Oleic acid] | – | – | 0 (0%) | 0 (0%) | 1008.4 ± 648.6 | – | –
CCCCCC/C=C\CCCCCCCC=O [Z9-16:Ald] | – | – | – | – | – | enhance the activity | synergistic
